The subject of series [1] is rat prostate cancer. To be noted: syngeneic rat prostate cancer; cited from earlier work.
Series [2] concerns mouse breast cancer. To be noted: cited from earlier work.
Series [3] concerns the target T1, sc-urokinase (uPA) (Homo sapiens, UniProt P00749).
T1 construct: purchased Ribosepharm GmbH, Haan, Germany
Kind of series: In-vitro inhibition of urokinase, chromogenic substrate, Dixon Ki. It counts as biochemical. Here is the method: (§1) The uPA inhibitor activity was determined by incubating 200 μl of Tris buffer (0.05 mol/l, containing the inhibitor, 0.154 mol/l NaCl, 5% ethanol, pH 8.0), 25 μl of substrate (Pefachrome UK or BZ-β-Ala-Gly-Arg-pNA in H2O; Pentapharm Ltd, Basle, Switzerland) and 50 μl of sc-urokinase (Ribosepharm GmbH, Haan, Germany) or another corresponding protease at 25° C. After 3 min, the reaction was interrupted by adding 25 μl of acetic acid (50%) and absorbance at 405 nm was determined by means of a microplate reader (MR 5000, Dynatech, Denkendorf, Germany). The Ki values were determined by linear regression according to Dixon by means of a computer program. The Ki values are the average of at least three determinations, and the standard deviation was below 25%.

Series [4] concerns the target F Xa (Homo sapiens, UniProt P00742). Kind of series: In-vitro protease inhibition, chromogenic substrate, Dixon Ki. It counts as biochemical. The protocol:
as §1

In series [5] the target is Plasmin (Homo sapiens, UniProt P00747). The series is described as above. It counts as biochemical. To be noted: 25° C., pH 8.0. The protocol:
as §1

The target of series [6] is Thrombin (Homo sapiens, UniProt P00734). The description is as above. It counts as biochemical. The protocol:
as §1

Series [7] addresses T2, Trypsin (UniProt P00760).
T2 sequence (P00760 1-246): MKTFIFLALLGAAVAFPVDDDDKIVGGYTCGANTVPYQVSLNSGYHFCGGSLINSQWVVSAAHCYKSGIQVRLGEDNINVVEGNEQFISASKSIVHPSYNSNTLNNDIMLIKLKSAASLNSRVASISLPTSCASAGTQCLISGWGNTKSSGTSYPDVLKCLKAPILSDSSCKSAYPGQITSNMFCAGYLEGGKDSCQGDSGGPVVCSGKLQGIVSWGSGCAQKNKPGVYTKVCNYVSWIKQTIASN
Described as above. It counts as biochemical. Here is the method:
The Ki values were determined by linear regression according to Dixon by means of a computer program.

Series [8] relates to rat breast adenocarcinoma cells. To be noted: after i.v. inoculation of tumor cells; cited from earlier work.
In series [9] the test system is DU145 tumors (a prostate adenocarcinoma cell line). To be noted: oral, daily dose of 125 to 250 mg/kg/day; cited from earlier work.
[10] abbreviates: 25° C., pH 8.0, average of at least three determinations, read-out: Ki uPA.
The mark [11] stands for this setting: 25° C., pH 8.0, read-out: Ki F Xa.
[12] abbreviates: 25° C., pH 8.0, read-out: Ki Thrombin.
[13] abbreviates: 25° C., pH 8.0; read-out: Ki Trypsin.
Setting [14] is: Ki uPA, 25° C., pH 8.0, average of at least three determinations.
The mark [15] stands for this setting: read-out: Ki Trypsin; 25° C., pH 8.0.

SMILES strings stand for the structures. Read-outs that look alike come from different tables or passages of the source. A value given as a limit tells only on which side of the number the result lay.

F Xa, sequence (P00742 235-488 limits assumed): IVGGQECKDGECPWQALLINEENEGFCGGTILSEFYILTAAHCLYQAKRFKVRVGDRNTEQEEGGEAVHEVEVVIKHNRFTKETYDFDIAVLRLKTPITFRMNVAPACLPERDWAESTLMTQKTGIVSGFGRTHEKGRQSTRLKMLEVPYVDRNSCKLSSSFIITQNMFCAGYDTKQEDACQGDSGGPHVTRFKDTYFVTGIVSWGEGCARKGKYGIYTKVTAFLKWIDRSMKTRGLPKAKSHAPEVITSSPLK
F Xa, sequence (P00742 41-179 partner limits assumed): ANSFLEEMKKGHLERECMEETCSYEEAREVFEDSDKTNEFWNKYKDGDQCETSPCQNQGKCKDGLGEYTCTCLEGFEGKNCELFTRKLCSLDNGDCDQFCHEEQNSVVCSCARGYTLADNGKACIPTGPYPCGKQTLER
Plasmin, sequence (P00747 581-810 limits assumed, species assumed): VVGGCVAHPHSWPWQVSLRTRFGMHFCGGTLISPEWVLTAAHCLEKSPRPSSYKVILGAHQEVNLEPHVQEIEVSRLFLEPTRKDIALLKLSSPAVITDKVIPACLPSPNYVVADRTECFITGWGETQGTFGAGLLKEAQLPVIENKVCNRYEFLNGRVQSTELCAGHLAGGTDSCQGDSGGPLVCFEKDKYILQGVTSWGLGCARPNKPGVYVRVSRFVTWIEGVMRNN
Plasmin, sequence (P00747 97-580 partner limits assumed, species assumed): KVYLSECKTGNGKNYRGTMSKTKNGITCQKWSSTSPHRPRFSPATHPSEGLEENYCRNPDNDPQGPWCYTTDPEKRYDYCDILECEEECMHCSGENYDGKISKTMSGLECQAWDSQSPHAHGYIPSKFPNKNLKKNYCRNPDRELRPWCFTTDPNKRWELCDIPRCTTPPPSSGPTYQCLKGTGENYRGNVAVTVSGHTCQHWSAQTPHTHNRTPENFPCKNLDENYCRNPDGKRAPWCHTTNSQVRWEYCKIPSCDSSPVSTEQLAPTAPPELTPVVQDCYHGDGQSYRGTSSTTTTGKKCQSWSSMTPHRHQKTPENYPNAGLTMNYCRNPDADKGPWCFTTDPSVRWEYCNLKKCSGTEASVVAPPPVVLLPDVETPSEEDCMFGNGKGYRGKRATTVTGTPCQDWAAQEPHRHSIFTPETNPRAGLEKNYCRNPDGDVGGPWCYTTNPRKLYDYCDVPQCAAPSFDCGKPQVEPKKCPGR

Take `N=C(N)c1cc2c(I)cccc2s1` [B428, 4-iodobenzo[b]thiophene-2-carboxamidine]: the “tumor growth and metastases formation” value in series [1] is “decrease of tumor growth and metastases formation”; in [2] (syngeneic mouse breast cancer), “decrease of tumor growth and metastases formation”. For the same compound, the primary tumor growth result in [2] (administered together with the antiestrogen tamoxifen) is listed as “further decrease in primary tumor growth”.

For the compound `CC(C)(C)OC(=O)NCc1ccc(NC(=N)N)cc1` [ST 242], the Ki (as a rule, the equilibrium dissociation constant of an inhibitor or competing ligand from its target) is 36 µM in series [3] (setting [10]); more than 1000 µM in [4] (setting [11]); more than 1000 µM in series [5]; more than 1000 µM in series [6] (setting [12]); more than 1000 µM in [7] (setting [13]).

With `N=C(N)Nc1ccc(N)cc1` [ST 267], the Ki in series [3] (setting [10]), in [4] (setting [11]), in series [5], in series [6] (setting [12]) and in series [7] (setting [13]) was more than 1000 µM throughout.

Take `CCOC(=O)NCc1ccc(NC(=N)N)cc1` [ST 269]: the Ki was 27 µM in series [3] (setting [10]); more than 1000 µM in series [4] (setting [11]); more than 1000 µM in series [5]; more than 1000 µM in [6] (setting [12]); more than 1000 µM in series [7] (setting [13]).

For the compound `CC(C)(C)COC(=O)NCc1ccc(NC(=N)N)cc1` [ST 271], the Ki was 51 µM in [3] (setting [10]); more than 1000 µM in [4] (setting [11]); more than 1000 µM in series [5]; more than 1000 µM in [6] (setting [12]); more than 1000 µM in series [7] (setting [13]).

As for `CC(C)OC(=O)NCc1ccc(NC(=N)N)cc1` [ST 273], the Ki in series [3] (setting [10]) is 52 µM; in [4] (setting [11]), more than 1000 µM; in [5], 130 µM; in [6] (setting [12]), more than 1000 µM; in series [7] (setting [13]) it was more than 1000 µM.

`N=C(N)Nc1ccc(CNC(=O)OC23C[C@H]4C[C@@H](C2)C[C@@H](C3)C4)cc1` [ST 274]: the Ki is 23 µM in series [3] (setting [10]); more than 1000 µM in series [4] (setting [11]); more than 1000 µM in [5]; more than 1000 µM in [6] (setting [12]); more than 1000 µM in series [7] (setting [13]).

On to `N=C(N)Nc1ccc(CN)cc1` [ST 275], for which the Ki in [3] (setting [10]), in series [4] (setting [11]), in [5], in series [6] (setting [12]) and in series [7] (setting [13]) was more than 1000 µM in each case.

Regarding `CC(=O)Nc1ncc(S(=O)(=O)NCc2ccc(NC(=N)N)cc2)s1` [ST 282], the Ki was 240 µM in [3] (setting [10]); more than 1000 µM in series [4] (setting [11]); more than 1000 µM in series [5]; more than 1000 µM in [6] (setting [12]); more than 1000 µM in series [7] (setting [13]).

As for `N=C(N)Nc1ccc(CNC(=O)NC23C[C@H]4C[C@@H](C2)C[C@@H](C3)C4)cc1` [ST 293], the “uPA inhibition, result in words” value in series [3] is “particularly effective and selective inhibitors”. Moreover, the Ki is 2.4 µM in series [3] (setting [10]); more than 1000 µM in [3] (read-out: Ki value for uPA); more than 1000 µM in series [4] (setting [11]); more than 1000 µM in [5]; 600 µM in series [6] (setting [12]); 46 µM in series [7] (setting [13]).

Consider `CC(C)(C)OC(=O)NCC(=O)NCc1ccc(NC(=N)N)cc1` [ST 294], for which the Ki in [3] (setting [10]) was 37 µM; in series [4] (setting [11]), more than 1000 µM; in series [5] it was more than 1000 µM; in series [6] (setting [12]), more than 1000 µM; in [7] (setting [13]) it was more than 1000 µM.

`CC(=O)Nc1ccc(S(=O)(=O)NCC(=O)NCc2ccc(NC(=N)N)cc2)cc1` [ST 296]: the Ki in [3] (setting [10]) is 22 µM; in series [4] (setting [11]), more than 1000 µM; in series [5] it was more than 1000 µM; in series [6] (setting [12]), more than 1000 µM; in series [7] (setting [13]), 42 µM.

Consider `CC(C)c1cc(C(C)C)c(S(=O)(=O)NCC(=O)NCc2ccc(NC(=N)N)cc2)c(C(C)C)c1` [ST 298], for which the Ki in [3] (setting [10]) was 42 µM; in series [4] (setting [11]), more than 1000 µM; in series [5] it was more than 1000 µM; in series [6] (setting [12]), more than 1000 µM; in series [7] (setting [13]) it was 37 µM.

Consider `N=C(N)Nc1ccc(CNC(=O)Nc2ccccc2)cc1` [ST 301], for which the Ki in [3] (setting [10]) is 29 µM; in series [4] (setting [11]), 330 µM; in series [5], 170 µM; in [6] (setting [12]), more than 1000 µM; in series [7] (setting [13]) it was more than 1000 µM.

As to `N=C(N)Nc1ccc(CNC(=O)OCc2ccc([N+](=O)[O-])cc2)cc1` [ST 311], the Ki in series [3] (setting [10]) is 12 µM; in series [4] (setting [11]), more than 1000 µM; in series [6] (setting [12]), more than 1000 µM; in [7] (setting [13]) it was 200 µM.

Turning to `CC(C)(c1ccc(OC(=O)NCc2ccc(NC(=N)N)cc2)cc1)c1ccc(OC(=O)NCc2ccc(NC(=N)N)cc2)cc1` [ST 312], the “uPA inhibition, result in words” value in series [3] was “particularly effective and selective inhibitors”. Besides, the Ki is 2.8 µM in series [3] (setting [14]); more than 1000 µM in [3] (Ki value for uPA); more than 1000 µM in series [4]; more than 1000 µM in series [6]; 100 µM in series [7] (setting [15]).

With `COc1cc(COC(=O)NCc2ccc(NC(=N)N)cc2)c([N+](=O)[O-])cc1OC` [ST 313], the Ki was 35 µM in series [3] (setting [10]), more than 1000 µM in series [4] (setting [11]) and more than 1000 µM in [6] (setting [12]).

Turning to `N=C(N)Nc1ccc(CNC(=O)Oc2ccc(/N=N/c3ccccc3)cc2)cc1` [ST 315], the Ki in [3] (setting [14]) is 11 µM; in series [3] (Ki value for uPA), more than 1000 µM; in [4], more than 1000 µM; in [6], more than 1000 µM; in series [7] (setting [15]), 200 µM.

For the compound `N=C(N)NC(=O)c1nc(Cl)c(N)nc1N` [amiloride], in series [8], the “formation of lung metastases” value is “prevents the formation of lung metastases”.

Regarding `N=C(N)c1ccc(N)cc1` [p-Aminobenzamidine], in series [9], the “growth rate of DU145 tumors” value is “distinct decrease in the growth rate” and the side effects entry was “negligible”.
